Data as given in the supplement of paper PMC10307832.

Key:
Experiment in all cases: relative viability (nuclei count vs DMSO), 5 days (fraction); higher = more cells survive
Bleomycin + Phenformin = compound: CC1=C(N=C(N=C1N)[C@H](CC(=O)N)NC[C@@H](C(=O)N)N)C(=O)N[C@@H]([C@H](C2=CN=CN2)OC3C(C(C(C(O3)CO)O)O)OC4C(C(C(C(O4)CO)O)OC(=O)N)O)C(=O)N[C@H](C)[C@H]([C@H](C)C(=O)N[C@@H]([C@@H](C)O)C(=O)NCCC5=NC(=CS5)C6=NC(=CS6)C(=O)NCCC[S+](C)C)O [Bleomycin] + N=C(N)NC(=N)NCCc1ccccc1 [Phenformin] (partner 250 µM); conditions: main component drawn
Summary of the method: (§1)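 The day after seeding in 1536-well plates, lung cancer cell lines were treated by pin tool with a single drug, or with a fixed anchor-drug dose together with five library-drug doses (not always all listed) in √10 steps. After 5 days, a combined fix-and-stain solution (final 0.05% Triton X-100, 1% formaldehyde, 1 ug/ml Hoechst) was added. Nuclei counted on 4× images gave relative viability as treated counts over vehicle counts, reported as the median of duplicate plates.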

Etoposide + Vorinostat = compound: COc1cc([C@@H]2c3cc4c(cc3[C@@H](O[C@@H]3O[C@@H]5CO[C@@H](C)O[C@H]5[C@H](O)[C@H]3O)[C@H]3COC(=O)[C@H]23)OCO4)cc(OC)c1O [Etoposide] + O=C(CCCCCCC(=O)Nc1ccccc1)NO [Vorinostat] (partner 1 µM)
Summary of the method: as §1

Bleomycin + Vorinostat = compound: CC1=C(N=C(N=C1N)[C@H](CC(=O)N)NC[C@@H](C(=O)N)N)C(=O)N[C@@H]([C@H](C2=CN=CN2)OC3C(C(C(C(O3)CO)O)O)OC4C(C(C(C(O4)CO)O)OC(=O)N)O)C(=O)N[C@H](C)[C@H]([C@H](C)C(=O)N[C@@H]([C@@H](C)O)C(=O)NCCC5=NC(=CS5)C6=NC(=CS6)C(=O)NCCC[S+](C)C)O [Bleomycin] + O=C(CCCCCCC(=O)Nc1ccccc1)NO [Vorinostat] (partner 1 µM); conditions: main component drawn
Summary of the method: as §1

Etoposide + Lapatinib = compound: COc1cc([C@@H]2c3cc4c(cc3[C@@H](O[C@@H]3O[C@@H]5CO[C@@H](C)O[C@H]5[C@H](O)[C@H]3O)[C@H]3COC(=O)[C@H]23)OCO4)cc(OC)c1O [Etoposide] + CS(=O)(=O)CCNCc1ccc(-c2ccc3ncnc(Nc4ccc(OCc5cccc(F)c5)c(Cl)c4)c3c2)o1 [Lapatinib] (partner 2 µM)
Summary of the method: as §1

PC-3 [JPC-3]
relative viability (Bleomycin + Phenformin; first compound 0.01 µM): 0.476 | relative viability (Bleomycin + Phenformin; first compound 0.03162 µM): 0.511 | relative viability (Bleomycin + Phenformin; first compound 0.1 µM): 0.475 | relative viability (Bleomycin + Phenformin; first compound 0.3162 µM): 0.364 | relative viability (Bleomycin + Phenformin; first compound 1 µM): 0.336 | relative viability (Etoposide + Vorinostat; first compound 0.01 µM): 0.796 | relative viability (Etoposide + Vorinostat; first compound 0.03162 µM): 1.09 | relative viability (Etoposide + Vorinostat; first compound 0.1 µM): 0.69 | relative viability (Etoposide + Vorinostat; first compound 0.3162 µM): 0.694 | relative viability (Etoposide + Vorinostat; first compound 1 µM): 0.518 | relative viability (Bleomycin + Vorinostat; first compound 0.01 µM): 0.788 | relative viability (Bleomycin + Vorinostat; first compound 0.03162 µM): 0.928 | relative viability (Bleomycin + Vorinostat; first compound 0.1 µM): 0.737 | relative viability (Bleomycin + Vorinostat; first compound 0.3162 µM): 0.46 | relative viability (Bleomycin + Vorinostat; first compound 1 µM): 0.417 | relative viability (Etoposide + Lapatinib; first compound 0.01 µM): 0.432 | relative viability (Etoposide + Lapatinib; first compound 0.03162 µM): 0.487 | relative viability (Etoposide + Lapatinib; first compound 0.1 µM): 0.344 | relative viability (Etoposide + Lapatinib; first compound 0.3162 µM): 0.475 | relative viability (Etoposide + Lapatinib; first compound 1 µM): 0.374

NCI-H661
relative viability (Bleomycin + Phenformin; first compound 0.01 µM): 0.272 | relative viability (Bleomycin + Phenformin; first compound 0.03162 µM): 0.239 | relative viability (Bleomycin + Phenformin; first compound 0.1 µM): 0.232 | relative viability (Bleomycin + Phenformin; first compound 0.3162 µM): 0.216 | relative viability (Bleomycin + Phenformin; first compound 1 µM): 0.215 | relative viability (Etoposide + Vorinostat; first compound 0.01 µM): 0.759 | relative viability (Etoposide + Vorinostat; first compound 0.03162 µM): 0.841 | relative viability (Etoposide + Vorinostat; first compound 0.1 µM): 0.706 | relative viability (Etoposide + Vorinostat; first compound 0.3162 µM): 0.476 | relative viability (Etoposide + Vorinostat; first compound 1 µM): 0.382 | relative viability (Bleomycin + Vorinostat; first compound 0.01 µM): 0.777 | relative viability (Bleomycin + Vorinostat; first compound 0.03162 µM): 0.708 | relative viability (Bleomycin + Vorinostat; first compound 0.1 µM): 0.565 | relative viability (Bleomycin + Vorinostat; first compound 0.3162 µM): 0.376 | relative viability (Bleomycin + Vorinostat; first compound 1 µM): 0.346 | relative viability (Etoposide + Lapatinib; first compound 0.01 µM): 0.44 | relative viability (Etoposide + Lapatinib; first compound 0.03162 µM): 0.416 | relative viability (Etoposide + Lapatinib; first compound 0.1 µM): 0.314 | relative viability (Etoposide + Lapatinib; first compound 0.3162 µM): 0.283 | relative viability (Etoposide + Lapatinib; first compound 1 µM): 0.235

NCI-H1666
relative viability (Bleomycin + Phenformin; first compound 0.01 µM): 0.528 | relative viability (Bleomycin + Phenformin; first compound 0.03162 µM): 0.516 | relative viability (Bleomycin + Phenformin; first compound 0.1 µM): 0.494 | relative viability (Bleomycin + Phenformin; first compound 0.3162 µM): 0.344 | relative viability (Bleomycin + Phenformin; first compound 1 µM): 0.302 | relative viability (Etoposide + Vorinostat; first compound 0.01 µM): 0.94 | relative viability (Etoposide + Vorinostat; first compound 0.03162 µM): 0.933 | relative viability (Etoposide + Vorinostat; first compound 0.1 µM): 0.918 | relative viability (Etoposide + Vorinostat; first compound 0.3162 µM): 0.632 | relative viability (Etoposide + Vorinostat; first compound 1 µM): 0.549 | relative viability (Bleomycin + Vorinostat; first compound 0.01 µM): 0.786 | relative viability (Bleomycin + Vorinostat; first compound 0.03162 µM): 0.926 | relative viability (Bleomycin + Vorinostat; first compound 0.1 µM): 0.885 | relative viability (Bleomycin + Vorinostat; first compound 0.3162 µM): 0.652 | relative viability (Bleomycin + Vorinostat; first compound 1 µM): 0.613 | relative viability (Etoposide + Lapatinib; first compound 0.01 µM): 0.616 | relative viability (Etoposide + Lapatinib; first compound 0.03162 µM): 0.692 | relative viability (Etoposide + Lapatinib; first compound 0.1 µM): 0.371 | relative viability (Etoposide + Lapatinib; first compound 0.3162 µM): 0.305 | relative viability (Etoposide + Lapatinib; first compound 1 µM): 0.28

NCI-H2085
relative viability (Bleomycin + Phenformin; first compound 0.01 µM): 0.599 | relative viability (Bleomycin + Phenformin; first compound 0.03162 µM): 0.595 | relative viability (Bleomycin + Phenformin; first compound 0.1 µM): 0.55 | relative viability (Bleomycin + Phenformin; first compound 0.3162 µM): 0.329 | relative viability (Bleomycin + Phenformin; first compound 1 µM): 0.306 | relative viability (Etoposide + Vorinostat; first compound 0.01 µM): 0.762 | relative viability (Etoposide + Vorinostat; first compound 0.03162 µM): 0.809 | relative viability (Etoposide + Vorinostat; first compound 0.1 µM): 0.635 | relative viability (Etoposide + Vorinostat; first compound 0.3162 µM): 0.75 | relative viability (Etoposide + Vorinostat; first compound 1 µM): 0.301 | relative viability (Bleomycin + Vorinostat; first compound 0.01 µM): 0.777 | relative viability (Bleomycin + Vorinostat; first compound 0.03162 µM): 0.721 | relative viability (Bleomycin + Vorinostat; first compound 0.1 µM): 0.679 | relative viability (Bleomycin + Vorinostat; first compound 0.3162 µM): 0.378 | relative viability (Bleomycin + Vorinostat; first compound 1 µM): 0.386 | relative viability (Etoposide + Lapatinib; first compound 0.01 µM): 0.777 | relative viability (Etoposide + Lapatinib; first compound 0.03162 µM): 0.73 | relative viability (Etoposide + Lapatinib; first compound 0.1 µM): 0.534 | relative viability (Etoposide + Lapatinib; first compound 0.3162 µM): 0.599 | relative viability (Etoposide + Lapatinib; first compound 1 µM): 0.372

NCI-H1734
relative viability (Bleomycin + Phenformin; first compound 0.01 µM): 0.327 | relative viability (Bleomycin + Phenformin; first compound 0.03162 µM): 0.28 | relative viability (Bleomycin + Phenformin; first compound 0.1 µM): 0.28 | relative viability (Bleomycin + Phenformin; first compound 0.3162 µM): 0.177 | relative viability (Bleomycin + Phenformin; first compound 1 µM): 0.131 | relative viability (Etoposide + Vorinostat; first compound 0.01 µM): 0.701 | relative viability (Etoposide + Vorinostat; first compound 0.03162 µM): 0.929 | relative viability (Etoposide + Vorinostat; first compound 0.1 µM): 0.514 | relative viability (Etoposide + Vorinostat; first compound 0.3162 µM): 0.458 | relative viability (Etoposide + Vorinostat; first compound 1 µM): 0.219 | relative viability (Bleomycin + Vorinostat; first compound 0.01 µM): 0.612 | relative viability (Bleomycin + Vorinostat; first compound 0.03162 µM): 0.623 | relative viability (Bleomycin + Vorinostat; first compound 0.1 µM): 0.472 | relative viability (Bleomycin + Vorinostat; first compound 0.3162 µM): 0.231 | relative viability (Bleomycin + Vorinostat; first compound 1 µM): 0.15 | relative viability (Etoposide + Lapatinib; first compound 0.01 µM): 0.971 | relative viability (Etoposide + Lapatinib; first compound 0.03162 µM): 1.05 | relative viability (Etoposide + Lapatinib; first compound 0.1 µM): 0.612 | relative viability (Etoposide + Lapatinib; first compound 0.3162 µM): 0.515 | relative viability (Etoposide + Lapatinib; first compound 1 µM): 0.273

NCI-H2228
relative viability (Bleomycin + Phenformin; first compound 0.01 µM): 0.314 | relative viability (Bleomycin + Phenformin; first compound 0.03162 µM): 0.312 | relative viability (Bleomycin + Phenformin; first compound 0.1 µM): 0.301 | relative viability (Bleomycin + Phenformin; first compound 0.3162 µM): 0.185 | relative viability (Bleomycin + Phenformin; first compound 1 µM): 0.147 | relative viability (Etoposide + Vorinostat; first compound 0.01 µM): 0.577 | relative viability (Etoposide + Vorinostat; first compound 0.03162 µM): 0.668 | relative viability (Etoposide + Vorinostat; first compound 0.1 µM): 1.07 | relative viability (Etoposide + Vorinostat; first compound 0.3162 µM): 0.272 | relative viability (Etoposide + Vorinostat; first compound 1 µM): 0.142 | relative viability (Bleomycin + Vorinostat; first compound 0.01 µM): 0.637 | relative viability (Bleomycin + Vorinostat; first compound 0.03162 µM): 0.557 | relative viability (Bleomycin + Vorinostat; first compound 0.1 µM): 0.486 | relative viability (Bleomycin + Vorinostat; first compound 0.3162 µM): 0.17 | relative viability (Bleomycin + Vorinostat; first compound 1 µM): 0.22 | relative viability (Etoposide + Lapatinib; first compound 0.01 µM): 0.84 | relative viability (Etoposide + Lapatinib; first compound 0.03162 µM): 1.05 | relative viability (Etoposide + Lapatinib; first compound 0.1 µM): 0.846 | relative viability (Etoposide + Lapatinib; first compound 0.3162 µM): 0.703 | relative viability (Etoposide + Lapatinib; first compound 1 µM): 0.138

EMC-BAC-2
relative viability (Bleomycin + Phenformin; first compound 0.01 µM): 0.46 | relative viability (Bleomycin + Phenformin; first compound 0.03162 µM): 0.468 | relative viability (Bleomycin + Phenformin; first compound 0.1 µM): 0.391 | relative viability (Bleomycin + Phenformin; first compound 0.3162 µM): 0.275 | relative viability (Bleomycin + Phenformin; first compound 1 µM): 0.217 | relative viability (Etoposide + Vorinostat; first compound 0.01 µM): 0.636 | relative viability (Etoposide + Vorinostat; first compound 0.03162 µM): 0.428 | relative viability (Etoposide + Vorinostat; first compound 0.1 µM): 0.239 | relative viability (Etoposide + Vorinostat; first compound 0.3162 µM): 0.153 | relative viability (Etoposide + Vorinostat; first compound 1 µM): 0.139 | relative viability (Bleomycin + Vorinostat; first compound 0.03162 µM): 0.472 | relative viability (Bleomycin + Vorinostat; first compound 0.1 µM): 0.36 | relative viability (Bleomycin + Vorinostat; first compound 0.3162 µM): 0.28 | relative viability (Bleomycin + Vorinostat; first compound 1 µM): 0.18 | relative viability (Etoposide + Lapatinib; first compound 0.01 µM): 0.855 | relative viability (Etoposide + Lapatinib; first compound 0.03162 µM): 0.822 | relative viability (Etoposide + Lapatinib; first compound 0.1 µM): 0.572 | relative viability (Etoposide + Lapatinib; first compound 0.3162 µM): 0.344 | relative viability (Etoposide + Lapatinib; first compound 1 µM): 0.215

NCI-H1993
relative viability (Bleomycin + Phenformin; first compound 0.01 µM): 0.501 | relative viability (Bleomycin + Phenformin; first compound 0.03162 µM): 0.512 | relative viability (Bleomycin + Phenformin; first compound 0.1 µM): 0.478 | relative viability (Bleomycin + Phenformin; first compound 0.3162 µM): 0.419 | relative viability (Bleomycin + Phenformin; first compound 1 µM): 0.44 | relative viability (Etoposide + Vorinostat; first compound 0.03162 µM): 0.683 | relative viability (Etoposide + Vorinostat; first compound 0.1 µM): 0.507 | relative viability (Etoposide + Vorinostat; first compound 0.3162 µM): 0.718 | relative viability (Etoposide + Vorinostat; first compound 1 µM): 0.284 | relative viability (Bleomycin + Vorinostat; first compound 0.01 µM): 0.669 | relative viability (Bleomycin + Vorinostat; first compound 0.03162 µM): 0.585 | relative viability (Bleomycin + Vorinostat; first compound 0.1 µM): 0.864 | relative viability (Bleomycin + Vorinostat; first compound 0.3162 µM): 0.303 | relative viability (Bleomycin + Vorinostat; first compound 1 µM): 0.386 | relative viability (Etoposide + Lapatinib; first compound 0.01 µM): 0.95 | relative viability (Etoposide + Lapatinib; first compound 0.03162 µM): 0.797 | relative viability (Etoposide + Lapatinib; first compound 0.1 µM): 0.75 | relative viability (Etoposide + Lapatinib; first compound 0.3162 µM): 0.659 | relative viability (Etoposide + Lapatinib; first compound 1 µM): 0.657
